Our source for the fluorescent readings values is US20100204128A1, “NOVEL PEPTIDES” (SANARE INVESTMENT AS, priority 2007, published 2010).

Values joined by “and” are separate entries in the source; they are usually repeats but may differ in a detail not shown here. Equal values may be shown once.

Common to all, as to format: cell-based
Conditions in all cases: 24 hours, duplicate wells

In one experiment the test system is T47D cells. In words: AlmarBlue fluorescence cell growth test, T47D cells. How it is done:
(§1) Re-feed media were prepared to yield the following final six concentrations of each of the 12 peptides: 5×10^−3, 5×10^−4, 5×10^−5, 5×10^−6, 5×10^−7, and 5×10^−8M. […] With that, the 5×10^−3M mixture contains about 0.42×10^−3M of each peptide. […] With that, the 5×10^−3M mixture contains about 0.42×10^−3M of each of said 8 peptides.
(§2) MCF-7 and T47D cells were seeded into 96-well plates at a density of 10,000 cells per well in 90 μL of appropriate culture medium. TMX2-28 cells were seeded into 96-well plates at a density of 5,000 cells per well in 90 μL of appropriate culture medium. Plates were placed in a 37° C., 5% CO2 incubator and cells were allowed to attach to the bottom of the well for 24 hours after which 10 μL of the appropriate refeed medium was added. Each concentration was tested in duplicate in each cell line. […] Cells were then incubated for 24 hours. Subsequently 10 μL of AlmarBlue (Biosource) was added to each well. After three hours, the fluorescence was detected using a Packard Instrument Plate Reader with 535/20 excitation and 590/20 emission filters.

For another experiment, the system named is MCF-7 cells. The experiment can be described thus: AlmarBlue fluorescence cell growth test, MCF-7 cells. How it is done: as §1, §2
Another experiment concerns TMX2-28 cells. The experiment can be described thus: AlmarBlue fluorescence cell growth test, TMX2-28 cells. The protocol: With that, the 5×10^−3M mixture contains about 0.42×10^−3M of each peptide. Furthermore, mixtures containing equal volumes of peptides SEQ ID NO:2-SEQ ID NO:7, SEQ ID NO:10 and SEQ ID NO:11 were also prepared (equal volumes of said re-feed media) to yield the following final six concentrations: […] With that, the 5×10^−3M mixture contains about […].
as §2

The mark [1] stands for this setting: 5 × 10^−4 M (mixtures: total concentration), decrease vs DC5 = reduced cell growth.
The mark [2] stands for this setting: 5 × 10^−5 M (mixtures: total concentration).
Where [3] appears, read: 5 × 10^−6 M (mixtures: total concentration).
Setting [4] is: 5 × 10^−7 M (mixtures: total concentration).
[5] abbreviates: 5 × 10^−8 M (mixtures: total concentration).
[6] abbreviates: 5 × 10^−9 M (mixtures: total concentration).

In the case of “SEQIDNO10: synthesised peptide identified in the 10 kDa blood fraction after acupuncture; sequence not printed in the text (GGVLSPADKTNVK; Derived from human blood sample)”, the fluorescent readings with T47D cells (setting [1]) is 58905 and 62040; with T47D cells (setting [2]), 62235 and 61799; with T47D cells (setting [3]) it was 61232 and 61422; with T47D cells (setting [4]), 61576 and 62488; in the experiment on T47D cells (setting [5]) it was 62058 and 61865; in the experiment on T47D cells (setting [6]), 63213 and 64672. The fluorescent readings was 66888 and 71581 in the experiment with MCF-7 cells (setting [1]); 67041 and 68134 with MCF-7 cells (setting [2]); 68442 and 69458 in the experiment on MCF-7 cells (setting [3]); 67343 and 65315 in the experiment with MCF-7 cells (setting [4]); 62238 and 64184 with MCF-7 cells (setting [5]); 62410 and 63264 with MCF-7 cells (setting [6]). Moreover, the fluorescent readings with TMX2-28 cells (setting [1]) was 74950 and 67668; in the experiment on TMX2-28 cells (setting [2]), 70143 and 70096; in the experiment on TMX2-28 cells (setting [3]), 68926 and 71006; in the experiment with TMX2-28 cells (setting [4]), 68674 and 69541; in the experiment with TMX2-28 cells (setting [5]) it was 67904 and 70174; in the experiment on TMX2-28 cells (setting [6]), 64358 and 65678.

As to “SEQIDNO5: synthesised peptide identified in the 10 kDa blood fraction after acupuncture; sequence not printed in the text (REVQGAFLRFMACLLKGYRV; Derived from human blood sample)”, the fluorescent readings is 54287 and 54068 in the experiment on T47D cells (setting [1]); 61500 and 65566 in the experiment on T47D cells (setting [2]); 63089 and 64735 with T47D cells (setting [3]); 64043 and 64408 with T47D cells (setting [4]); 62339 and 63402 with T47D cells (setting [5]); 61350 and 61820 in the experiment on T47D cells (setting [6]). The fluorescent readings is 56679 and 54497 with MCF-7 cells (setting [1]); 61089 and 62458 in the experiment on MCF-7 cells (setting [2]); 61618 and 65571 with MCF-7 cells (setting [3]); 61677 and 66372 in the experiment with MCF-7 cells (setting [4]); 62738 and 64281 in the experiment on MCF-7 cells (setting [5]); 57537 and 60120 in the experiment with MCF-7 cells (setting [6]). The fluorescent readings in the experiment with TMX2-28 cells (setting [1]) was 27056 and 29836; with TMX2-28 cells (setting [2]) it was 62564 and 67140; in the experiment on TMX2-28 cells (setting [3]), 67405 and 69619; with TMX2-28 cells (setting [4]) it was 69438 and 69605; with TMX2-28 cells (setting [5]), 70141 and 70591; in the experiment on TMX2-28 cells (setting [6]), 69376 and 67302.

“SEQIDNO7: synthesised peptide identified in the 10 kDa blood fraction after acupuncture; sequence not printed in the text (RMSIQCDVWRSKFLASRV; Derived from human blood sample)”: the fluorescent readings in the experiment on T47D cells (setting [1]) was 62688 and 60767; in the experiment on T47D cells (setting [2]), 68041 and 64777; with T47D cells (setting [3]), 66479 and 60908; in the experiment on T47D cells (setting [4]), 65388 and 63864; in the experiment with T47D cells (setting [5]) it was 64353 and 63685; with T47D cells (setting [6]), 64124 and 63134. The fluorescent readings is 64171 and 62704 in the experiment on MCF-7 cells (setting [1]); 67257 and 64433 in the experiment with MCF-7 cells (setting [2]); 66311 and 66105 in the experiment with MCF-7 cells (setting [3]); 63995 and 67019 in the experiment with MCF-7 cells (setting [4]); 65755 and 66292 in the experiment with MCF-7 cells (setting [5]); 60589 and 62763 in the experiment on MCF-7 cells (setting [6]). For the same substance, the fluorescent readings in the experiment on TMX2-28 cells (setting [1]) is 58887 and 60090; in the experiment on TMX2-28 cells (setting [2]), 64931 and 66366; with TMX2-28 cells (setting [3]), 68010 and 67591; in the experiment with TMX2-28 cells (setting [4]), 68325 and 70586; in the experiment on TMX2-28 cells (setting [5]) it was 67109 and 70471; with TMX2-28 cells (setting [6]) it was 62010 and 66328.

Take “SEQIDNO8: synthesised peptide identified in the 10 kDa blood fraction after acupuncture; sequence not printed in the text (GVLLVRAPPACLQVLR; Derived from human blood sample)”: the fluorescent readings was 62688 and 60767 in the experiment with T47D cells (setting [1]); 68041 and 64777 in the experiment on T47D cells (setting [2]); 66479 and 60908 in the experiment on T47D cells (setting [3]); 65388 and 63864 in the experiment with T47D cells (setting [4]); 64353 and 63685 in the experiment with T47D cells (setting [5]); 64124 and 63134 with T47D cells (setting [6]). Moreover, the fluorescent readings in the experiment on MCF-7 cells (setting [1]) is 64002 and 64485; in the experiment with MCF-7 cells (setting [2]) it was 68720 and 70447; in the experiment on MCF-7 cells (setting [3]), 69897 and 70376; with MCF-7 cells (setting [4]), 68985 and 70404; in the experiment on MCF-7 cells (setting [5]), 68423 and 68263; in the experiment with MCF-7 cells (setting [6]), 61653 and 66015. The fluorescent readings is 63114 and 65457 in the experiment with TMX2-28 cells (setting [1]); 67475 and 69324 with TMX2-28 cells (setting [2]); 68833 and 70414 in the experiment with TMX2-28 cells (setting [3]); 70559 and 72074 in the experiment on TMX2-28 cells (setting [4]); 70603 and 73593 with TMX2-28 cells (setting [5]); 68676 and 68864 with TMX2-28 cells (setting [6]).

As to “SEQIDNO11: synthesised peptide identified in the 10 kDa blood fraction after acupuncture; sequence not printed in the text (TLAGENQTALEIEELNRK; Derived from human blood sample)”, the fluorescent readings in the experiment with T47D cells (setting [1]) is 61976 and 62453; in the experiment on T47D cells (setting [2]), 61546 and 64267; with T47D cells (setting [3]) it was 62448 and 60200; in the experiment with T47D cells (setting [4]), 62557 and 63900; with T47D cells (setting [5]), 62018 and 64649; in the experiment with T47D cells (setting [6]), 63935 and 65696. Besides, the fluorescent readings in the experiment on MCF-7 cells (setting [1]) was 65114 and 72373; in the experiment on MCF-7 cells (setting [2]), 65947 and 68983; with MCF-7 cells (setting [3]), 64058 and 64030; with MCF-7 cells (setting [4]), 63837 and 64861; with MCF-7 cells (setting [5]), 60430 and 65118; in the experiment with MCF-7 cells (setting [6]), 60886 and 63795. The fluorescent readings was 66600 and 67446 in the experiment with TMX2-28 cells (setting [1]); 67045 and 66528 in the experiment on TMX2-28 cells (setting [2]); 66568 and 64759 with TMX2-28 cells (setting [3]); 64371 and 65373 in the experiment on TMX2-28 cells (setting [4]); 65587 and 66707 in the experiment with TMX2-28 cells (setting [5]); 64433 and 65703 in the experiment with TMX2-28 cells (setting [6]).
